Literature values in patent publication US20050026871A1 (priority 2002, published 2005).

Tests used:
[1] = Physicians' Desk Reference, Rocaltrol Oral Solution; cited from earlier work
[2] = reported in the literature; cited from earlier work

For C=C1/C(=C\C=C2/CCC[C@]3(C)[C@@H]([C@H](C)CCCC(C)(C)O)CC[C@@H]23)C[C@@H](O)C[C@@H]1O [calcitriol, 1α,25-dihydroxyvitamin D3], the “time to peak serum concentrations after ingestion” value [1] is given as “three to six”.
In the case of NCCCC(O)(P(=O)(O)O)P(=O)(O)O [Alendronate, alendronate], the “pH at which alendronate is best absorbed” value [2] is listed as roughly 6.
